Source: patent US10800774B2, “Heterocyclic inhibitors of ATR kinase” (Board of Regents, The University of Texas System, priority 2017, dated 2020)
pIC50: −log10 of the molar value.

How the values were obtained:
[1] = target: ATR/ATRIP complex (Homo sapiens (Human), UniProt Q13535); experiment: ATR/ATRIP enzymatic assay (Caliper-based); format: biochemical; conditions: FAM-labeled RAD17 peptide, ATP; read-out: ATR/ATRIP Enzyme IC50
Experimental: Human full-length FLAG-TEV-ATR and His6-ATRIP were co-expressed in HEK293 cells. […] The sample was loaded into a column, and then washed with buffer A three times. Protein was subsequently eluted with 2 ml of buffer B (buffer A+200 μg/ml 3×FLAG peptide).
The ability of new chemical matter to inhibit the ATR catalytic activity in this ATR/ATRIP complex was assessed using a Caliper-based assay. A 2× enzyme solution (i.e., 4 nM enzyme) was prepared using 1× Kinase Reaction Buffer (25 mM HEPES pH 8, 0.0055% Brij-35, 10 mM MnCl2, and 1 mM DTT). […] 10 μL of the 2× enzyme solution was transferred to an assay plate containing 60 nL of test compound (from a 3× serial dilution) in 100% DMSO. Following a 30 minute incubation at 28° C., 10 μL of the 2× peptide solution was then transferred to the same assay plate. The reaction was allowed to incubate at 28° C. for 6 hours. After adding […] of stop buffer (100 mM HEPES pH 7.5, 0.015% Brij-35, 0.2% Coating-3 Reagent (PerkinElmer, catalog # PN760050), and 50 mM EDTA), data were collected on a Caliper instrument. Conversion values were converted to inhibition values via the following equation: % inhibition=(max−conversion)/(max−min)*100, whereby “max” corresponds to the DMSO control and “min” corresponds to the low control. IC50 values were calculated using the following equation in XLFit: Y=Bottom+(Top−Bottom)/1+(IC50/X)^HillSlope).

[2] = system: ATR-driven phosphorylation of Chk1 kinase at Serine 345 in HT-29 cells; experiment: pCHK1 cellular assay (CHK1 p-Ser345 AlphaScreen SureFire); conditions: Homo sapiens, HT-29, read-out: pCHK1 Cell IC50
Experimental: The microplate was incubated overnight (approximately 20 hours) at 37° C. with 5% CO2 and ambient 02. Stock solutions of the test compounds were prepared in 100% DMSO (Sigma, Catalog # D2650) and serially diluted 1:3 using 100% DMSO. Compounds were additionally diluted 1:33 in culture medium, and 10 ul/well were transferred to the tissue culture plate. Following the compound addition the microplate was incubated at 37° C. for 90 minutes. […] The cells were then washed with PBS and lysed using 10 uL/well […] ® Kit lysis buffer diluted to 1× in water (PerkinElmer Catalog # TGRCHK1S50K), with mixing on an orbital shaker at 500 rpm for 20 min at RT. Lysates were frozen at −20° C. overnight.
The pCHK1 ALPHASCREEN® signal was measured using an ENVISION® plate reader (PerkinElmer). IC50 values were calculated using a four-parameter logistic curve fit using Genedata Screener software. Percent of control for each compound concentration was calculated by the following formula: 100*(Compound-Min)/(Max-Min) where “Max” is the high control, DMSO, and “Min” is the low control, 5 uM ATR inhibitor.

Chain of ATR/ATRIP complex (Q13535 whole entry): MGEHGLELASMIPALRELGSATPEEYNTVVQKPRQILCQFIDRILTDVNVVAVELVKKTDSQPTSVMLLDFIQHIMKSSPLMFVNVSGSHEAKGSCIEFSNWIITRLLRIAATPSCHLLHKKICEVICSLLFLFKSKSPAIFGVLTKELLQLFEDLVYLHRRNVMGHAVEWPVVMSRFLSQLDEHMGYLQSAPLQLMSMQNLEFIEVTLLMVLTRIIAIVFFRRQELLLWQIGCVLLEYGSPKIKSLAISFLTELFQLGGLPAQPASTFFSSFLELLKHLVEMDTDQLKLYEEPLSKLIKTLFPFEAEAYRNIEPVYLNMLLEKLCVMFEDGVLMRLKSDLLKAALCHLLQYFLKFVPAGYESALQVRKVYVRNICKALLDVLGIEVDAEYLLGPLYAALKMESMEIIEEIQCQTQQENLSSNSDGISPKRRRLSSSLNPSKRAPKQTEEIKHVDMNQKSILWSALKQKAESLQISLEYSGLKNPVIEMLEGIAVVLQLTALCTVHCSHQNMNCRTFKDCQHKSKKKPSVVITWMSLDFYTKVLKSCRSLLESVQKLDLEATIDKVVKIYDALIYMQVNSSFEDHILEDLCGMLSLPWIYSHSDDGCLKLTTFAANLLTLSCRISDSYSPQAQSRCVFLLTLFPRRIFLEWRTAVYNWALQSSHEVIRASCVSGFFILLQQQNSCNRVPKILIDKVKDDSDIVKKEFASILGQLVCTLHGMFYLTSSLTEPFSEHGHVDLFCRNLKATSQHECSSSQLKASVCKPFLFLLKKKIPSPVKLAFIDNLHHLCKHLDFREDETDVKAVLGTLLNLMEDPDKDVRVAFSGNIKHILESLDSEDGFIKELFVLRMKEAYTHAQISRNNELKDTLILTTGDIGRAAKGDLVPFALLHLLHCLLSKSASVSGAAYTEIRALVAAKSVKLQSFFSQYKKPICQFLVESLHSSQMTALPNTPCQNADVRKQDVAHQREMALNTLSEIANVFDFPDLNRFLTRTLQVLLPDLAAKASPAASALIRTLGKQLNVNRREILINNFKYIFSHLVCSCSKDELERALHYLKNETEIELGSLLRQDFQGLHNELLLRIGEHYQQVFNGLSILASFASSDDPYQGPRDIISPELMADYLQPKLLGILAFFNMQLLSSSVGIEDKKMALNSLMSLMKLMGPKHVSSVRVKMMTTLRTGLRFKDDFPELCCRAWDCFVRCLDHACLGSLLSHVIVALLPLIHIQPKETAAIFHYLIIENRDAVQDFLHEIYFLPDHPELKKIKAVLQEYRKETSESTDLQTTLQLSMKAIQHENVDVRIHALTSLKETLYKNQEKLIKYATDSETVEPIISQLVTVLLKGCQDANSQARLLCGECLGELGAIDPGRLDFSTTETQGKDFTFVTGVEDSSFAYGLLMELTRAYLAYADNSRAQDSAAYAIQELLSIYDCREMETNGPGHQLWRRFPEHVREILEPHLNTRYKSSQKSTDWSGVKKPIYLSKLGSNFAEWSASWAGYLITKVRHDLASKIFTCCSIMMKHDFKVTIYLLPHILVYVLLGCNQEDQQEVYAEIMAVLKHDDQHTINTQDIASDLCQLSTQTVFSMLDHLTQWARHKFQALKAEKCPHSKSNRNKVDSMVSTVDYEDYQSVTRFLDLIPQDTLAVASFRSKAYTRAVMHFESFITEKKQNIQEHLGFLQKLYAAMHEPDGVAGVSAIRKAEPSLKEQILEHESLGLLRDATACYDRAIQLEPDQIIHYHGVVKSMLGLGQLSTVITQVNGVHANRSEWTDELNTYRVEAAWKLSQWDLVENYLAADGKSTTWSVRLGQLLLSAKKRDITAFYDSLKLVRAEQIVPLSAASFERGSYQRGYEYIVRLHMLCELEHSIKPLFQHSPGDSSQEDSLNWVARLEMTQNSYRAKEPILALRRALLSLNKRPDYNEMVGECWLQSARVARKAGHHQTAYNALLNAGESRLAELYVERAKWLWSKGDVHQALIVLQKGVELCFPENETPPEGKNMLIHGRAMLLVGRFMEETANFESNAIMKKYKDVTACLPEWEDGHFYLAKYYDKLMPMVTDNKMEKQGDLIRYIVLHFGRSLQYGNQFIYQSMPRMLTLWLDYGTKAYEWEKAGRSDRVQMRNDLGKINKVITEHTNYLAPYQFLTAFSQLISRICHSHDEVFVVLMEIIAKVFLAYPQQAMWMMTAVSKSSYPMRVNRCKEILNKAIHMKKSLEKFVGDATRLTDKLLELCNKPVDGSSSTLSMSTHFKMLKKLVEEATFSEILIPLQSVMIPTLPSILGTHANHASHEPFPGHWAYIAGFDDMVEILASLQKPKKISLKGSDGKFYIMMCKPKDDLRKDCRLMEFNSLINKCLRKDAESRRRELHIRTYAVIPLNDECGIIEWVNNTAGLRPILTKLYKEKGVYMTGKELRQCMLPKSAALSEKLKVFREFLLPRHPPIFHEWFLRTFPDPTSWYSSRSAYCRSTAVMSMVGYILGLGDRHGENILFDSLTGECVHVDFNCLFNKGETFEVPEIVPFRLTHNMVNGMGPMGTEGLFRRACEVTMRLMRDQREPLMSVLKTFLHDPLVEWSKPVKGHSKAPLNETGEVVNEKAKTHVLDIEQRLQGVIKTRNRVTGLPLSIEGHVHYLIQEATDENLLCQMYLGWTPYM
Chain of ATR/ATRIP complex (Q8WXE1 whole entry partner): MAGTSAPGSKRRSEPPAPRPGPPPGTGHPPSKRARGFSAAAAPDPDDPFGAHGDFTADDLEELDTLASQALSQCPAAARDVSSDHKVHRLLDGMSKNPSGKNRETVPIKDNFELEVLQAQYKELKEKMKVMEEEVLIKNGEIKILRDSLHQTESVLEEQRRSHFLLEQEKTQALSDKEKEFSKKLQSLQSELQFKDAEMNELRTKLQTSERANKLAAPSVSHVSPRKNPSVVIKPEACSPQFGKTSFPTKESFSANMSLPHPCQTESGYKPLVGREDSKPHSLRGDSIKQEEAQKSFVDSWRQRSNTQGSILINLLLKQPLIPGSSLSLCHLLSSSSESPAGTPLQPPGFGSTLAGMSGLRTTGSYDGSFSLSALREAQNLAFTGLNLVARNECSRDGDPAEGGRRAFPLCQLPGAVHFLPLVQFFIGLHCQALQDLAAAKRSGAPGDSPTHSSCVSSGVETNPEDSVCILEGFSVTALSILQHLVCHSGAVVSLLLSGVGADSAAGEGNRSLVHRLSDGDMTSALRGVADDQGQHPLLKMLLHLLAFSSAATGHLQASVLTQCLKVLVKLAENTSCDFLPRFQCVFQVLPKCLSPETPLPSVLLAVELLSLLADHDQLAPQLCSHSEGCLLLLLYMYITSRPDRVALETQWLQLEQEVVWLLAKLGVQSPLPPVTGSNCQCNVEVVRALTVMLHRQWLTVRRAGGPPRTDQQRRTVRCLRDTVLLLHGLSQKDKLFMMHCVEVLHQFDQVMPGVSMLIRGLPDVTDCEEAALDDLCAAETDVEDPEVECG

SMILES	pIC50 [1]	pIC50 [2]
C[C@@H]1COCCN1c1cc(C2CCN(C(=O)CC3CC3)CC2)nc(-c2ccnc3[nH]ccc23)n1 [Example 25, 2-Cyclopropyl-1-(4-{6-[(3R)-3-methylmorpholin-4-yl]-2-{1H-pyrrolo[2,3-b]pyridin-4-yl}pyrimidin-4-yl}piperidin-1-yl) ethan-1-one]	7.80	6.86
C[C@@H]1COCCN1c1cc(C2CCCCS2(=O)=O)nc(-c2ccnc3[nH]ccc23)n1 (stereo partly drawn) [Example 26, 2-{6-[(3R)-3-Methyl-morpholin-4-yl]-2-{1H-pyrrolo[2,3-b]pyridin-4-yl}pyrimidin-4-yl}-1λ^6-thiane-1,1-dione]	8.10	7.07
CC(C)OC(=O)N1CCC(c2cc(N3CCOC[C@H]3C)nc(-c3ccnc4[nH]ccc34)n2)CC1 [Example 27, Propan-2-yl 4-{6-[(3R)-3-methylmorpholin-4-yl]-2-{1H-pyrrolo[2,3-b]pyridin-4-yl}pyrimidin-4-yl}piperidine-1-carboxylate]	7.82	6.39
C[C@@H]1COCCN1c1cc(C2CCN(C(=O)OCC3CC3)CC2)nc(-c2ccnc3[nH]ccc23)n1 [Example 28, Cyclopropylmethyl 4-{6-[(3R)-3-methylmorpholin-4-yl]-2-{1H-pyrrolo[2,3-b]-pyridin-4-yl}pyrimidin-4-yl}piperidine-1-carboxylate]	7.77	6.57
C[C@@H]1COCCN1c1cc(C2(C)CCCS2(=O)=O)nc(-c2ccnc3[nH]ccc23)n1 (stereo partly drawn) [Example 29, 2-Methyl-2-(6-((R)-3-methylmorpholino)-2-(1H-pyrrolo[2,3-b]pyridin-4-yl)pyrimidin-4-yl)tetrahydrothiophene 1,1-dioxide]	8.10	7.05

Next, values leading:

pIC50 [1]	pIC50 [2]	SMILES
8.22	7.12	C[C@@H]1COCCN1c1cc([C@]2(C)CCCS2(=O)=O)nc(-c2ccnc3[nH]ccc23)n1 [Example 30a, (S)-2-methyl-2-(6-((R)-3-methylmorpholino)-2-(1H-pyrrolo[2,3-b]pyridin-4-yl)pyrimidin-4-yl)tetrahydrothiophene 1,1-dioxide]
8.22	6.97	C[C@@H]1COCCN1c1cc([C@@]2(C)CCCS2(=O)=O)nc(-c2ccnc3[nH]ccc23)n1 [Example 30b, (R)-2-methyl-2-(6-((R)-3-methylmorpholino)-2-(1H-pyrrolo[2,3-b]pyridin-4-yl)pyrimidin-4-yl)tetrahydrothiophene 1,1-dioxide]
